The source of these data is BindingDB's records for patent US20260049084 (Gossamer Bio Services, 2026).

The target of assay [1] is T1, Ectonucleotide pyrophosphatase/phosphodiesterase family member 3 (Homo sapiens, UniProt O14638).
T1 sequence (O14638 whole entry): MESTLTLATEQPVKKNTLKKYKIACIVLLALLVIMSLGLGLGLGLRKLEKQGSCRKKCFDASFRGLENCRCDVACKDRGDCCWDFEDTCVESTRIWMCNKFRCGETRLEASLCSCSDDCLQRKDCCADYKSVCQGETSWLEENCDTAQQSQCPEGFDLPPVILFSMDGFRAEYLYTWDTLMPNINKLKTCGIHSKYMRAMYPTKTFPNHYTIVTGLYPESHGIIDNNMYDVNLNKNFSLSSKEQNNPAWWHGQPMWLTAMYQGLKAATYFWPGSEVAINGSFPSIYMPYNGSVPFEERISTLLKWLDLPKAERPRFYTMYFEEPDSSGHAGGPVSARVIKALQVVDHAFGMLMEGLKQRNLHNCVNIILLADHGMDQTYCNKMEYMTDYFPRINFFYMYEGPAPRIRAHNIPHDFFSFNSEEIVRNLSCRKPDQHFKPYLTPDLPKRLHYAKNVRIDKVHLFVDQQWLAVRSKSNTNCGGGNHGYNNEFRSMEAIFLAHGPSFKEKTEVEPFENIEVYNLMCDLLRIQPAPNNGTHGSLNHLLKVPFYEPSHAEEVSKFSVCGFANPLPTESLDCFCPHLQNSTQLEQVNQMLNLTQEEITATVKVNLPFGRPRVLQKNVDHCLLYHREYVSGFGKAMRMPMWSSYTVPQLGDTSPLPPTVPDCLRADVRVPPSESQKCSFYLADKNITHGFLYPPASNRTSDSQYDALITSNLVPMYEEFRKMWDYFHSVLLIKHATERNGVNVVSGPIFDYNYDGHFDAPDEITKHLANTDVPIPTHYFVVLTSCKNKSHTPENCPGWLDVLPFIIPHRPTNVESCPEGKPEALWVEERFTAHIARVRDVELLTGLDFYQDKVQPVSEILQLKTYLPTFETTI
Kind of assay: ENPP3 cGAMP Biochemical Assay. As for the experimental part:
Compounds were added to 384 well Proxiplate (PerkinElmer, Waltham MA) at 100 nl/well from DMSO stocks using Echo (Labcyte, San Jose CA). Recombinant human ENPP3 protein (Acro Biosystems, Newwark DE) was prepared in assay buffer (50 mM Tris pH7.5, 1 mM TCEP pH7.0, 2 mM MgCl2, 2 mM CaCl2), 2 mM ZnCl2 and 0.005% Tween20) and added at 2 μl/well. […] The plate was sealed and centrifuged at 1000 rpm for 1 minute again. […] The assay plate was incubated at room temperature for 120 minutes. TR-FRET signal was detected using Envision (PerkinElmer, Waltham MA).

Assay [2] addresses T2, Ectonucleotide pyrophosphatase/phosphodiesterase family member 1 (Homo sapiens, UniProt P22413).
T2 sequence (P22413 whole entry): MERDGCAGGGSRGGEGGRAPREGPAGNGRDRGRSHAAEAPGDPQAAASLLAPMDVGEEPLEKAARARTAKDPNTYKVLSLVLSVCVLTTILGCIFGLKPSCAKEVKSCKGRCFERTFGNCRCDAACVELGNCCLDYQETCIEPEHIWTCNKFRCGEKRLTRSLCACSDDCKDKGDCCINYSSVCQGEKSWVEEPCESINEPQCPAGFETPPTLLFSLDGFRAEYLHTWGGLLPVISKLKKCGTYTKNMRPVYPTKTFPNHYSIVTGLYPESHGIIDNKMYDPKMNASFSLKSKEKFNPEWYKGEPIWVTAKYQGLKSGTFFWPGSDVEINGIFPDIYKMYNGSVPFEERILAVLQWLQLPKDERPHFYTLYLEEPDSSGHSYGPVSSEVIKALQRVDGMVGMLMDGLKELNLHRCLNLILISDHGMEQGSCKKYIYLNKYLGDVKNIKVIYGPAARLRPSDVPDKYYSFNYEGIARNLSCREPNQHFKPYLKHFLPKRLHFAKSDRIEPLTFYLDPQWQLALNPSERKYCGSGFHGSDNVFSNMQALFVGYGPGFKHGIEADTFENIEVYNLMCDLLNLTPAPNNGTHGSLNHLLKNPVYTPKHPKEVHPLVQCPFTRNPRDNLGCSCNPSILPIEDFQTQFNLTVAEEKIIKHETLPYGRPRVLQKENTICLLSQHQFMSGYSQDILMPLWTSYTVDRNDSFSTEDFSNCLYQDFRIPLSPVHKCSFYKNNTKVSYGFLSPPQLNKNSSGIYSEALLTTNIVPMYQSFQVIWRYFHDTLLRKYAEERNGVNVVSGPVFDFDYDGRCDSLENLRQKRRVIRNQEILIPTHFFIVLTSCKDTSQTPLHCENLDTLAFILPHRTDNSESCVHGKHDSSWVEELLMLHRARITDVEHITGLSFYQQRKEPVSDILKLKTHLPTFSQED
Kind of assay: ENPP1 cGAMP Biochemical Assay. As for the experimental part: Compounds were added to 384 well Proxiplate (PerkinElmer, Waltham MA) at 100 nl/well from DMSO stocks using Echo (Labcyte, San Jose CA). Recombinant human ENPP1 protein (R&D Systems, Minneapolis MN) was prepared in assay buffer (50 mM Tris pH7.5, 1 mM TCEP pH7.0, 2 mM MgCl2 and 0.005% Tween20) and added at 10 μl/well. The plate was sealed, centrifuged at 1000 rpm for 1 minute and incubated at room temperature for 30 minutes before 5 μl substrate 2′3′-cGAMP (R&D Systems, Minneapolis MN) in assay buffer was added to each well to a final concentration of 0.5 nM ENPP1 and 1000 nM 2′3′-cGAMP. The plate was sealed and centrifuged at 1000 rpm for 1 minute again. After incubation at 25° C. for 60 minutes, Terbium labelled AMP/GMP antibody and AMP/GMP HiLyte647 Tracer (BellBrook Labs, Fitchburg WI) in detection buffer (50 mM Tris pH7.5, 20 mM EDTA and 0.1% Prionex) were added to the reaction mixture to a final concentration of 2 nM (5 μl/well). The assay plate was incubated at room temperature for 120 minutes. TR-FRET signal was detected using Envision (PerkinElmer, Waltham MA).

Assay [3] has as its target Carbonic anhydrase 2 (Homo sapiens, UniProt P00918). Description: Carbonic Anhydrase 2 Enzymatic Assay. The method, then:
Test compound and/or vehicle was preincubated with carbonic anhydrase II enzyme (15 μg/ml) isolated from human erythrocyte in reaction buffer (50 mM MOPS solution pH 7.5) for 15 minutes at 25° C. The reaction was initiated by addition of 500 μM 4-nitrophenyl acetate and incubated for 30 minutes. The plate was read on a spectrophotometer (Absorbance: 400 nm).

The target of assay [4] is Carbonic anhydrase 1 (Homo sapiens, UniProt P00915). Description: Carbonic Anhydrase 1 Enzymatic Assay. The method, then: Test compound and/or vehicle was preincubated with carbonic anhydrase I enzyme (15 μg/ml) isolated from human erythrocyte in reaction buffer (50 mM MOPS solution pH 7.5) for 15 minutes at 25° C. The reaction was initiated by addition of 500 μM 4-nitrophenyl acetate and incubated for 30 minutes. The plate was read on a spectrophotometer (Absorbance: 400 nm)
Sequence of Carbonic anhydrase 1 (P00915 whole entry): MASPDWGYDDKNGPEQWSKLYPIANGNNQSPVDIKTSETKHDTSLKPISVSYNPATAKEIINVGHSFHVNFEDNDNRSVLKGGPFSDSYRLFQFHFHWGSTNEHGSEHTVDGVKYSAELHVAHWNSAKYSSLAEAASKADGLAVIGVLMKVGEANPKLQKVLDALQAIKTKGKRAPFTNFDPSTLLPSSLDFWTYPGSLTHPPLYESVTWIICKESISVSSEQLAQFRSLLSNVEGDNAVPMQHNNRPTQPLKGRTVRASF

The structures appear in SMILES notation. pIC50: −log10 of the molar value. A value given as a limit tells only on which side of the number the result lay.

The term pIC50 denotes the IC50 on a negative log10 scale, so that one unit is a factor of ten.

With `CCn1nc(Cl)c2c(NCC3CCN(S(=N)(=O)CCNC(C)=O)CC3)ccnc21` (centres undefined) [US20260049084, Compound 14K], the results for the pIC50 in assay [1] and in assay [2] were less than 6.00 and greater than 8.00, respectively.
Take `CN=[S@](N)(=O)N1CCC(CNc2ccnc3c2c(Cl)nn3CC#N)CC1` [US20260049084, Compound 15G]: the pIC50 in assay [3] and in assay [4] was less than 6.00 each time.
